Earlier results as cited in paper PMC6462165 (International Journal of Nanomedicine, 2019).

Test system: endothelial cell proliferation
Details: inhibition of endothelial cell proliferation; cited from earlier work

Sequence: IVRRADRAAVP [ES2]
- activity relative to the ES sequence: about three times more active than the ES sequence
